Read-outs that look alike come from different tables or passages of the source.
How the values were obtained:
[1] = system: human pancreatic chymotrypsin; assay: Specificity assay, chymotrypsin; assay type: biochemical; conditions: 2 h enzyme-inhibitor pre-incubation; read-out: Chymotrypsin activity in the specificity assays
Description: (§1) The specificities of compounds of the present disclosure were determined against a variety of serine proteases: human neutrophil elastase (HNE), porcine pancreatic elastase (PPE) and human pancreatic chymotrypsin and one cysteine protease: human liver cathepsin B. In all cases a 96-well plate format protocol using colorimetric p-nitroaniline (pNA) substrate specific for each enzyme was used as described previously (PCT Patent Application No. WO 00/09543) with some modifications to the serine protease assays. All enzymes were purchased from Sigma while the substrates were from Bachem.
(§2) Each assay included a 2 h enzyme-inhibitor pre-incubation at room temperature followed by addition of substrate and hydrolysis to ˜30% conversion as measured on a Spectramax Pro microplate reader. Compound concentrations varied from 100 to 0.4 μM depending on their potency.
(§3) The final conditions for each assay were the same as those described in WO 03/099274, page 623.
(§4) The percentage of inhibition was calculated using the formula: [1−((UVinh−UVblank)/(UVctl−UVblank))]×100
(§5) A non-linear curve fit was applied to the inhibition-concentration data, and the 50% effective concentration (IC50) was calculated by the use of Excel XLfit software.

[2] = target: T1, HCV NS3/4A protease complex, H77 strain (Hepatitis C virus genotype 1a, UniProt P27958, C1454S/C1711G); assay: FRET peptide assay to monitor HCV NS3/4A proteolytic activity (H77 strain); assay type: biochemical
T1 construct: recombinant HCV NS3/4A protease complex (amino acids 1027 to 1711) for these strains; inferred from pET21b vector and Ni-NTA purification; made in house; host or cells: Escherichia coli BL21 (DE3), pET21b
Excerpt: (§6) Generation of Recombinant HCV NS3/4A Protease Complex
(§7) HCV NS3 protease complexes, derived from the BMS strain, H77 strain or J4L6S strain, were generated, as described below. These purified recombinant proteins were generated for use in a homogeneous assay (see below) to provide an indication of how effective compounds of the present disclosure would be in inhibiting HCV NS3 proteolytic activity.
(§8) Serum from an HCV-infected patient was obtained from Dr. T. Wright, San Francisco Hospital. An engineered full-length cDNA (compliment deoxyribonucleic acid) template of the HCV genome (BMS strain) was constructed from DNA fragments obtained by reverse transcription-PCR (RT-PCR) of serum RNA (ribonucleic acid) and using primers selected on the basis of homology between other genotype 1a strains. From the determination of the entire genome sequence, a genotype 1a was assigned to the HCV isolate according to the classification of Simmonds et al. (See P Simmonds, K A Rose, S Graham, S W Chan, F McOmish, B C Dow, E A Follett, P L Yap and H Marsden, J. Clin. Microbiol., 31(6), 1493-1503 (1993)). […]

[3] = target: T2, porcine pancreatic elastase (PPE) (Sus scrofa, UniProt P00772); assay: Specificity assay, porcine pancreatic elastase; assay type: biochemical; conditions: 2 h enzyme-inhibitor pre-incubation; read-out: PPE activity in the specificity assays
T2 construct: purchased Sigma
Description: as §1, §2, §3, §4, §5

[4] = target: T3, HCV NS3/4A protease complex, BMS strain (UniProt P27958, species not given/STRAIN_BMS); assay: FRET peptide assay to monitor HCV NS3/4A proteolytic activity (BMS strain); assay type: biochemical, Hepatitis C virus (genotype 1a); conditions: NS3/4A BMS strain, enzyme assay
T3 construct: DNA encoding the recombinant HCV NS3/4A protease complex (amino acids 1027 to 1711) for these strains [H77 and J4L6S]; fused on or other part: For the H77 and J4L6S constructs, a three-lysine solubilising tail at the NS4A C-terminus and a Ni-NTA-purifiable tag from pET21b
In short: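 Recombinant NS3/4A complexes (aa 1027–1711) with C-terminal three-lysine tail, C1711G and C1454S, expressed in E. coli BL21(DE3) (0.5 mM IPTG, 22 h, 20°C) for H77 (1a) and J4L6S (1b); BMS strain is genotype 1a patient isolate. Purified by Ni-NTA and Superdex-S200; proteolysis monitored by FRET peptide cleavage.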

[5] = target: T4, HCV NS3/4A protease complex, J4L6S strain (Hepatitis C virus genotype 1b, UniProt O92972, C1454S/C1711G); assay: FRET peptide assay to monitor HCV NS3/4A proteolytic activity (J4L6S strain); assay type: biochemical
T4 construct: recombinant HCV NS3/4A protease complex (amino acids 1027 to 1711) for these strains; inferred from pET21b vector and Ni-NTA purification; made in house; host or cells: Escherichia coli BL21 (DE3), pET21b
Excerpt: as §6, §7, §8

T3 sequence (P27958 1027-1657, stated change not applied, one chain of several): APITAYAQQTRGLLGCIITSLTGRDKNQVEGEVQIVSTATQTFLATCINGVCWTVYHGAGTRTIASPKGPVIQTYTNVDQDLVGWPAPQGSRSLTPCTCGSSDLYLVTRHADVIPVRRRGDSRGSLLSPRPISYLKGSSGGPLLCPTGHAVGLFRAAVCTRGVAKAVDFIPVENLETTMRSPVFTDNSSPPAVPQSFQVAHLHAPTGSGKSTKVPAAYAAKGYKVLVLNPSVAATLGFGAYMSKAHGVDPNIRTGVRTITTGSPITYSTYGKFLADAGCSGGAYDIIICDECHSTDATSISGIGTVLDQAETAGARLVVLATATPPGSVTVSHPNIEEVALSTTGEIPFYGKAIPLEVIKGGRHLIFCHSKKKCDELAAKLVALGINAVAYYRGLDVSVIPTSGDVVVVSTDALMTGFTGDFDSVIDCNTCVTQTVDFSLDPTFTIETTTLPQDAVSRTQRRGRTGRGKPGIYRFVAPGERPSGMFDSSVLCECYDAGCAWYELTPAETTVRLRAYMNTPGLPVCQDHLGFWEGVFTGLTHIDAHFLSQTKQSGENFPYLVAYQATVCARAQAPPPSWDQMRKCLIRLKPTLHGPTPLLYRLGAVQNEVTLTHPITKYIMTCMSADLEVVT
T4 sequence (O92972 1027-1711 C1454S/C1711G, one chain of several): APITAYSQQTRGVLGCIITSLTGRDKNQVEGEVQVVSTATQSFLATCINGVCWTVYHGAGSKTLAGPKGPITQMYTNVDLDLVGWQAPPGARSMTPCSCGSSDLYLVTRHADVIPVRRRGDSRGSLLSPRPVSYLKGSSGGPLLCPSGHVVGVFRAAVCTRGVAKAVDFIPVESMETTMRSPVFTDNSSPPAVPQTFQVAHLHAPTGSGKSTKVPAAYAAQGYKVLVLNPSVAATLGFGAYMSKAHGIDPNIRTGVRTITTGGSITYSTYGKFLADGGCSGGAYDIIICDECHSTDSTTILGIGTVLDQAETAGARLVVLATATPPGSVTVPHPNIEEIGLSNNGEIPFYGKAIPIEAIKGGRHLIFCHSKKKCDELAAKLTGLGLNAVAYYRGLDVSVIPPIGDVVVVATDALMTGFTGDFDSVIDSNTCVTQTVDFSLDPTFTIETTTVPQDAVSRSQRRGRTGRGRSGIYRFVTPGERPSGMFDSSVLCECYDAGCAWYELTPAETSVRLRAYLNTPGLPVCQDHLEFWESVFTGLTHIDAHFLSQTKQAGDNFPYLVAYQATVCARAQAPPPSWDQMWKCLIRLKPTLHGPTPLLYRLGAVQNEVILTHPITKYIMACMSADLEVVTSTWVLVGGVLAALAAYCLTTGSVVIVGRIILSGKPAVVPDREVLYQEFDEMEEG
T2 sequence (P00772 27-266): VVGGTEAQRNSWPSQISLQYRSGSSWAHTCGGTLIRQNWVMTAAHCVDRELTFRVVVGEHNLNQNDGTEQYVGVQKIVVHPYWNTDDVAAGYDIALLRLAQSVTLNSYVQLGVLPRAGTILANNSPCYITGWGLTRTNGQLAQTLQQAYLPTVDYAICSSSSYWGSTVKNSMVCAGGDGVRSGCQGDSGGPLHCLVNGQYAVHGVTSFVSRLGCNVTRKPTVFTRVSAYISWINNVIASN
T1 sequence (P27958 1027-1711 C1454S/C1711G, one chain of several): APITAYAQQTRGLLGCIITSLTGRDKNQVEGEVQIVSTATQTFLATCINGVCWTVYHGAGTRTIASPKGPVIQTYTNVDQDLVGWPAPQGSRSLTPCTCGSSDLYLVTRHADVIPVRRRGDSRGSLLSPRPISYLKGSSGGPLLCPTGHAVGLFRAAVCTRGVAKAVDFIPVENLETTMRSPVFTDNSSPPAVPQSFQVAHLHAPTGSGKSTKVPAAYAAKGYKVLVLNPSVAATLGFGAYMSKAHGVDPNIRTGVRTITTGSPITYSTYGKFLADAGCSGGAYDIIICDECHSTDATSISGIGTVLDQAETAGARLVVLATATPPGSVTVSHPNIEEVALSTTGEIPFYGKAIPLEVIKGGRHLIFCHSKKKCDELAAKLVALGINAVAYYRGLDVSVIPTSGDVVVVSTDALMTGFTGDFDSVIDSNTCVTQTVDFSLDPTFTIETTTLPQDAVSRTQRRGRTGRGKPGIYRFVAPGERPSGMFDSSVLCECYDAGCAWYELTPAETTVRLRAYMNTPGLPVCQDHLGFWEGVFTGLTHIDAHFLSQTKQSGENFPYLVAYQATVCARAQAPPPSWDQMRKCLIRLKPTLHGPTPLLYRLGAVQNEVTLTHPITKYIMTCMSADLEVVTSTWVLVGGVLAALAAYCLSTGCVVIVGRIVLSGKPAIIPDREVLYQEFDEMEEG

C=CC1CC1(NC(=O)[C@@H]1C[C@@H](NC(=O)c2cc(-c3ccccc3)nc3ccccc23)CN1C(=O)[C@@H](NC(=O)CC1CC1)C(C)(C)C)C(=O)NS(=O)(=O)C1CC1 (stereo partly drawn) [Compound 9]
IC50 [1]: 65000 nM | IC50 [2]: 41 nM | IC50 [3]: > 100000 nM | IC50 [4]: 47 nM | IC50 ([4]; read-out: IC 50 Range): < 150 nM | IC50 [5]: 30 nM
